Results published in BigSolDB 2.1.

## O=C(Cn1cnnn1)N[C@@H]1C(=O)N2C(C(=O)O)=C(CSc3nncs3)CS[C@H]12
In acetone, 278.15 K
  solubility (mole fraction): 0.00153
In acetone, 283.15 K
  solubility (mole fraction): 0.00156
In acetone, 288.15 K
  solubility (mole fraction): 0.00161
In acetone, 293.15 K
  solubility (mole fraction): 0.00165
In acetone, 298.15 K
  solubility (mole fraction): 0.0017
In acetone, 303.15 K
  solubility (mole fraction): 0.00184
In acetone, 308.15 K
  solubility (mole fraction): 0.00193
In acetone, 313.15 K
  solubility (mole fraction): 0.0023
In acetonitrile, 278.15 K
  solubility (mole fraction): 0.000124
In acetonitrile, 283.15 K
  solubility (mole fraction): 0.000137
In acetonitrile, 288.15 K
  solubility (mole fraction): 0.000159
In acetonitrile, 293.15 K
  solubility (mole fraction): 0.000164
In acetonitrile, 298.15 K
  solubility (mole fraction): 0.000184
In acetonitrile, 303.15 K
  solubility (mole fraction): 0.000219
In acetonitrile, 308.15 K
  solubility (mole fraction): 0.000253
In acetonitrile, 313.15 K
  solubility (mole fraction): 0.000284
In ethanol, 278.15 K
  solubility (mole fraction): 4.85e-05
In ethanol, 283.15 K
  solubility (mole fraction): 5.92e-05
In ethanol, 288.15 K
  solubility (mole fraction): 6.49e-05
In ethanol, 293.15 K
  solubility (mole fraction): 7.26e-05
In ethanol, 298.15 K
  solubility (mole fraction): 9.45e-05
In ethanol, 303.15 K
  solubility (mole fraction): 0.000104
In ethanol, 308.15 K
  solubility (mole fraction): 0.000122
In ethanol, 313.15 K
  solubility (mole fraction): 0.000152
In ethyl acetate, 278.15 K
  solubility (mole fraction): 0.000188
In ethyl acetate, 283.15 K
  solubility (mole fraction): 0.000217
In ethyl acetate, 288.15 K
  solubility (mole fraction): 0.000242
In ethyl acetate, 293.15 K
  solubility (mole fraction): 0.0003
In ethyl acetate, 298.15 K
  solubility (mole fraction): 0.000342
In ethyl acetate, 303.15 K
  solubility (mole fraction): 0.000371
In ethyl acetate, 308.15 K
  solubility (mole fraction): 0.000433
In ethyl acetate, 313.15 K
  solubility (mole fraction): 0.00053
In isopropanol, 278.15 K
  solubility (mole fraction): 6.43e-05
In isopropanol, 283.15 K
  solubility (mole fraction): 6.82e-05
In isopropanol, 288.15 K
  solubility (mole fraction): 7.37e-05
In isopropanol, 293.15 K
  solubility (mole fraction): 8.59e-05
In isopropanol, 298.15 K
  solubility (mole fraction): 0.000104
In isopropanol, 303.15 K
  solubility (mole fraction): 0.000114
In isopropanol, 308.15 K
  solubility (mole fraction): 0.000134
In isopropanol, 313.15 K
  solubility (mole fraction): 0.000152
In methanol, 278.15 K
  solubility (mole fraction): 1.2e-05
In methanol, 283.15 K
  solubility (mole fraction): 1.5e-05
In methanol, 288.15 K
  solubility (mole fraction): 1.92e-05
In methanol, 293.15 K
  solubility (mole fraction): 2.43e-05
In methanol, 298.15 K
  solubility (mole fraction): 3.26e-05
In methanol, 303.15 K
  solubility (mole fraction): 4.34e-05
In methanol, 308.15 K
  solubility (mole fraction): 5.48e-05
In methanol, 313.15 K
  solubility (mole fraction): 6.84e-05
In water, 278.15 K
  solubility (mole fraction): 1.04e-05
In water, 283.15 K
  solubility (mole fraction): 1.27e-05
In water, 288.15 K
  solubility (mole fraction): 1.64e-05
In water, 293.15 K
  solubility (mole fraction): 1.92e-05
In water, 298.15 K
  solubility (mole fraction): 2.51e-05
In water, 303.15 K
  solubility (mole fraction): 3.24e-05
In water, 308.15 K
  solubility (mole fraction): 4.27e-05
In water, 313.15 K
  solubility (mole fraction): 5.32e-05
